± gives the standard deviation of the averaged measurements.
What was measured:
[1] = test system: Homo sapiens (human subject panel, olfactory perception); test: perceived odor familiarity rating (rating 0-100); higher = more familiar
Description: (§1)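 Human olfactory psychophysics. 55 healthy subjects (after excluding 6 low performers) sniffed 1 mL of each odorant diluted in paraffin oil (vials, two dilutions per molecule, 20 molecules presented twice). Each subject rated intensity, pleasantness and familiarity on a 0-100 slider, starting at 50 and required to move. Ratings were given only when the subject reported detecting a smell; per-subject ratings are averaged over subjects.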

[2] = test system: Homo sapiens (human subject panel, olfactory perception); test: perceived odor intensity rating (rating 0-100); higher = stronger perceived smell
Description: as §1

[3] = test system: Homo sapiens (human subject panel, olfactory perception); test: perceived odor pleasantness rating (rating 0-100); higher = more pleasant
Description: as §1

[4] = odor dilution in paraffin oil: 1/1,000
[5] = odor dilution in paraffin oil: 1/100,000
[6] = odor dilution in paraffin oil: 1/10,000,000
[7] = odor dilution in paraffin oil: 1/10

SMILES	perceived odor familiarity rating [1, 4]	perceived odor familiarity rating [1, 5]	perceived odor intensity rating [2, 4]	perceived odor intensity rating [2, 5]	perceived odor pleasantness rating [3, 4]	perceived odor pleasantness rating [3, 5]	perceived odor familiarity rating [1, 6]	perceived odor intensity rating [2, 6]	perceived odor pleasantness rating [3, 6]	perceived odor familiarity rating [1, 7]	perceived odor intensity rating [2, 7]	perceived odor pleasantness rating [3, 7]
CC(C)CCCC(C)CCO (stereo unspecified) [3,7-Dimethyl-1-octanol]	57.6 ± 30	40.5 ± 26	74.7 ± 22	24.2 ± 26	40.2 ± 28	43.8 ± 19						
CC(C)=CCCC(C)=CC#N [3,7-Dimethyl-2,6-octadienenitrile]	67.1 ± 29	48.4 ± 34	75.1 ± 22	46.2 ± 28	64.5 ± 28	60.3 ± 23						
Cc1ccc(C(C)CC=O)o1 (stereo unspecified) [3-(5-Methyl-2-furyl)butanal]	41.5 ± 32	36 ± 31	74.3 ± 22	30.8 ± 30	27.9 ± 24	41.6 ± 25						
CSCCC=O [3-(Methylthio)propionaldehyde]		53.5 ± 33		79.6 ± 23		23.9 ± 28	49.9 ± 33	70.3 ± 25	30.7 ± 26			
CSCCCN=C=S [3-(Methylthio)propyl isothiocyanate]	49.7 ± 32	47.6 ± 30	82.7 ± 21	62.5 ± 29	25.2 ± 26	34.3 ± 27						
CSCCCO [3-(methylthio)-1-propanol]		53.7 ± 31		82.2 ± 17		22.9 ± 26	43.2 ± 31	66.3 ± 26	24.8 ± 22			
CC(=O)c1cc(C)oc1C [3-Acetyl-2,5-dimethylfuran]		44.9 ± 27		65.6 ± 24		31.6 ± 22	40.2 ± 32	15.4 ± 22	48.9 ± 22			
CC(=O)c1cc(C)sc1C [3-Acetyl-2,5-dimethylthiophene]	47.4 ± 29	35.4 ± 30	78.9 ± 20	19.4 ± 20	27.7 ± 26	49.4 ± 29						
CC(=O)c1cccnc1 [3-Acetylpyridine]	48.2 ± 33	30 ± 31	76.2 ± 23	24.6 ± 30	32.3 ± 29	44.8 ± 29						
CCCCCC/C=C/C(C)=O [3-Decen-2-one]	42.5 ± 28	27.1 ± 21	65.4 ± 25	21.6 ± 23	33.9 ± 22	46.8 ± 18						
CC(C)CCS [3-Methyl-1-butanethiol]		54.6 ± 34		88.3 ± 14		13.3 ± 18	46.5 ± 29	54.1 ± 30	32 ± 26			
CC1CCCC(=O)C1 (stereo unspecified) [3-Methylcyclohexanone]	53.2 ± 34	34 ± 27	71 ± 28	39.3 ± 34	45.5 ± 30	41.7 ± 22						
CCCCCC(O)CC (stereo unspecified) [3-Octanol]	45.5 ± 29	35.9 ± 28	72 ± 23	26.9 ± 25	38.2 ± 25	49.5 ± 18						
CCCCCC(CC)OC(C)=O (stereo unspecified) [3-Octyl Acetate]	48.9 ± 29		39.7 ± 31		59 ± 26					51.6 ± 32	83.7 ± 17	44.9 ± 31
CCC(=O)CC [3-Pentanone]	53.3 ± 32	39.5 ± 29	57.4 ± 35	33.3 ± 32	41.1 ± 26	45.4 ± 24						
OCCCc1ccccc1 [3-Phenyl-1-propanol]	49.5 ± 34	36.7 ± 27	63.3 ± 30	34.5 ± 32	48.6 ± 33	45.4 ± 25						
CCC(=O)OCCCc1ccccc1 [3-Phenylpropyl propionate]	49.1 ± 28	38.6 ± 32	62.9 ± 26	28.4 ± 34	36.4 ± 28	49.8 ± 27						
CCCC(O)CC (stereo unspecified) [3-hexanol (replicate)]	50.5 ± 34	34.2 ± 26	68.9 ± 28	30.2 ± 30	32.3 ± 22	46.6 ± 22						

SMILES	perceived odor familiarity rating [1, 4]	perceived odor familiarity rating [1, 5]	perceived odor intensity rating [2, 4]	perceived odor intensity rating [2, 5]	perceived odor pleasantness rating [3, 4]	perceived odor pleasantness rating [3, 5]	perceived odor familiarity rating [1, 6]	perceived odor intensity rating [2, 6]	perceived odor pleasantness rating [3, 6]	perceived odor familiarity rating [1, 7]	perceived odor intensity rating [2, 7]	perceived odor pleasantness rating [3, 7]
CCCC(O)CC (stereo unspecified) [3-hexanol]	43.1 ± 31	28.1 ± 23	71.3 ± 28	29.7 ± 30	35.1 ± 26	49.1 ± 24						
CCCCCC(=O)CC [3-octanone]	56.4 ± 28	35.9 ± 30	69.7 ± 25	26 ± 27	50.9 ± 31	53.3 ± 23						
CCC(O)CC [3-pentanol]	58.3 ± 32	44 ± 33	76.4 ± 18	39.4 ± 35	34 ± 26	33.4 ± 25						
O=C1CCSC1 [4,5-Dihydro-3(2H)-thiophenone]	52.9 ± 34	30.8 ± 34	85.8 ± 20	37 ± 34	21.4 ± 26	33.2 ± 22						
CC1=C(O)C(=O)OC1C (stereo unspecified) [4,5-Dimethyl-3-hydroxy-2,5-dihydrofuran-2-one]		64.4 ± 25		72.6 ± 21		59.5 ± 29	42.7 ± 32	41.8 ± 30	46.1 ± 26			
CC(=O)CCc1ccc(O)cc1 [4-(4-Hydroxyphenyl)-2-butanone]	46.1 ± 28		46.3 ± 30		50.6 ± 24					40.1 ± 29	50.2 ± 29	49.6 ± 27
C=CCc1ccc(OC)cc1 [4-Allylanisole]	64.2 ± 28	28.7 ± 27	60.8 ± 26	22.3 ± 29	60.8 ± 24	54.5 ± 24						
CCOc1ccc(C=O)cc1 [4-Ethoxybenzaldehyde]	58.5 ± 30	47.2 ± 31	65.2 ± 25	34.2 ± 28	67.4 ± 26	66.4 ± 24						
CCc1ccc(O)c(OC)c1 [4-Ethylguaiacol]	57.6 ± 32	52.1 ± 32	78 ± 17	69.4 ± 23	41.7 ± 27	43.8 ± 24						
CCCC(=O)CCC [4-Heptanone]	55.4 ± 27	41.1 ± 29	69.3 ± 24	34.7 ± 31	49.3 ± 23	51.6 ± 24						
O=Cc1ccc(O)cc1 [4-Hydroxybenzaldehyde]	39.1 ± 31		37.6 ± 27		51.8 ± 23					39.5 ± 25	51.6 ± 29	49.2 ± 24
O=C1CCCO1 [4-Hydroxybutanoic acid lactone]	44.6 ± 31	28.2 ± 30	47 ± 34	19.9 ± 24	28.9 ± 19	46.1 ± 25						
CC(C)c1ccc(CO)cc1 [4-Isopropylbenzyl alcohol]	33.1 ± 29		31.9 ± 32		40.4 ± 25					46.4 ± 31	71.6 ± 22	31.8 ± 23
CC(=O)OCCc1scnc1C [4-Methyl-5-thiazoleethanol acetate]	53.8 ± 31	45.9 ± 32	66.3 ± 26	38 ± 30	34.4 ± 25	41.9 ± 24						
Cc1ncsc1CCO [4-Methyl-5-thiazoleethanol]	56.7 ± 32	39.9 ± 28	73.1 ± 20	48.6 ± 29	29.6 ± 25	37.8 ± 24						
C=Cc1scnc1C [4-Methyl-5-vinylthiazole]	41.4 ± 34	40.3 ± 33	80.5 ± 21	43.5 ± 32	21.3 ± 22	38.6 ± 27						
COc1ccc(C)cc1 [4-Methylanisole]	48.2 ± 31	50.2 ± 28	70.5 ± 21	44.8 ± 31	47.7 ± 28	56.3 ± 28						
CC1CCC(=O)CC1 [4-Methylcyclohexanone]	46 ± 32	49.2 ± 28	60.9 ± 31	32.5 ± 28	36.9 ± 25	64.6 ± 20						
